This note sets out measurements from patent US11065343B2, “Compound bearing beta-galactoside-introduced self-immolative linker” (IntoCell Inc., priority 2016, dated 2021).

For one data set, the system named is KB cancer cell line. Briefly: In vitro cytotoxicity of ligand-drug conjugates (MTT). Conditions: for IC50: read-out: Cell cytotoxicity IC50. The class given is cell-based, human. The protocol:
KB cancer cell line was seeded 30,000 cells per well of a 96-well plate, and after the culture for 24 hours, the drug MMAF-OMe was treated with a concentration of 0.0097˜10 nM (4-fold serial dilution), ligand-drug conjugate (B) prepared in Comparative Example 2 and ligand-drug conjugate (1) prepared in Example 2 were treated with a concentration of 0.0244-100 nM (4-fold serial dilution). The number of live cell after 72 hours was quantified by using 3-(4,5-dimethylthiazol-2-yl)-2,5-diphenyltetrazolium bromide (MTT) dye as chromogenic reagent. And then formazan reduced by oxidoreductase present in live cells were dissolved in DMSO, and quantified. […] Therefore, in the case of compound (1) to which galactoside linker is introduced, it could be confirmed that it has better efficacy compared with compound (B) to which glucuronide linker is introduced.

Another data set deals with T1, folate receptor (Homo sapiens, UniProt P15328).
T1 construct: Soluble plasma membrane from KB human cancer cells were isolated; endogenous in cells; host or cells: KB human cancer cells (plasma membrane protein extract, Abcam kit ab65400)
As to the kind of experiment: Binding affinity of ligand-drug conjugate to folic acid receptor (competition with FA-Cy5 tracer, polarized light). The protocol: Soluble plasma membrane from KB human cancer cells were isolated using plasma membrane protein extraction kit (ab65400) (Abcam company). […] After the preincubation for 15 minutes, FA-Cy5 tracer prepared in Preparation Example 10 was treated with a concentration of 1 nM, and after the reaction for 2 hours at 37° C., synergy2 microplate reader (BioTek company) (ex/em=635/688 nm) was used to measure polarized light.

The target in a further data set is T2, beta-galactosidase (Escherichia coli, UniProt P00722).
T2 construct: purchased Sigma G4155
As to the kind of experiment: in vitro. Conditions: Escherichia coli; beta-galactosidase, PBS buffer, 37° C., HPLC; read-out: hydrolysis half-life by enzyme. The class given is biochemical, E. coli. The method, then:
(§1) In order to identify the reactivity of ligand-drug conjugate (1) of Example 2 to β-galactosidase, the difference of the reactivity to R-glucuronidase between it and ligand-drug conjugate (B) of Comparative Example 2 as a comparative material was compared.
(§2) Ligand-drug conjugate (1) of Example 2 and ligand-drug conjugate (B) of Comparative Example 2 were respectively dissolved in DMSO to a concentration of 9 mM, and then each of them was mixed with PBS buffer solution to prepare 500 μM of solution.
(§3) An enzyme reaction solution for ligand-drug conjugate (1) of Example 2 was prepared by adding 1 mg/mL enzyme solution (10 μL) to the mixed solution comprising PBS buffer solution (440 μL) and 500 μM ligand-drug conjugate (1) solution (50 μL) of Example 2, then the reaction was initiated in 37° C. of the incubator.
(§4) Beta-galactosidase enzyme (Sigma G4155) in E. coli was used for the reaction mixture comprising ligand-drug conjugate (1) of Example 2 and beta-glucuronidase enzyme (Sigma G7396) in E. coli was used for the reaction mixture comprising ligand-drug conjugate (B) of Comparative Example 2 for the comparison experiment.
(§5) That is, in the case of compound (1) to which galactoside linker is introduced, it could be confirmed that it has more rapid hydrolysis rate 6 times or more, relative to comparison compound (B) to which glucuronide linker is introduced.

Data set [1] concerns the target T3, Beta-galactosidase enzyme (Sigma G4155) in E. coli (Escherichia coli, UniProt P00722).
T3 construct: purchased Sigma G4155
As to the kind of experiment: in vitro. The class given is biochemical. As to conditions: (1) with beta-galactosidase versus (B) with beta-glucuronidase. The method, then:
as §1, §2, §3, §4, §5

Read-outs that look alike come from different tables or passages of the source. *1 amine or outer side, *2 acyl side, *3 side chain or, on linkers, in order; H or OH if unused. Where a SMILES comes first, the peptide text is derived from it. [ ]: non-standard residue; d: D form. ξ: configuration not given here. Dil(5ξ) = CCC(C)[C@@H]([C@@H](CC(=O)[*:2])OC)N(C)[*:1]; Dolaproine = CO[C@@H]([C@@H]1CCCN1)[C@@H](C)C(=O)O; NMeV = CN[C@H](C(=O)O)C(C)C; ξF = NC(Cc1ccccc1)C(=O)O Where only a bound is given, the exact number is not on record here.

T1 sequence (P15328 25-234): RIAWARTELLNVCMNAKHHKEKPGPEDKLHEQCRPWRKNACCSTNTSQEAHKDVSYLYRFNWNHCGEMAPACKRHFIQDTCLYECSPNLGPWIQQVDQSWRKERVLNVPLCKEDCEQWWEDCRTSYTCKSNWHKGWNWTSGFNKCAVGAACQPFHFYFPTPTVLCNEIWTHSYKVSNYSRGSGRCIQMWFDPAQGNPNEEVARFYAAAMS
T3 sequence (P00722 2-1024): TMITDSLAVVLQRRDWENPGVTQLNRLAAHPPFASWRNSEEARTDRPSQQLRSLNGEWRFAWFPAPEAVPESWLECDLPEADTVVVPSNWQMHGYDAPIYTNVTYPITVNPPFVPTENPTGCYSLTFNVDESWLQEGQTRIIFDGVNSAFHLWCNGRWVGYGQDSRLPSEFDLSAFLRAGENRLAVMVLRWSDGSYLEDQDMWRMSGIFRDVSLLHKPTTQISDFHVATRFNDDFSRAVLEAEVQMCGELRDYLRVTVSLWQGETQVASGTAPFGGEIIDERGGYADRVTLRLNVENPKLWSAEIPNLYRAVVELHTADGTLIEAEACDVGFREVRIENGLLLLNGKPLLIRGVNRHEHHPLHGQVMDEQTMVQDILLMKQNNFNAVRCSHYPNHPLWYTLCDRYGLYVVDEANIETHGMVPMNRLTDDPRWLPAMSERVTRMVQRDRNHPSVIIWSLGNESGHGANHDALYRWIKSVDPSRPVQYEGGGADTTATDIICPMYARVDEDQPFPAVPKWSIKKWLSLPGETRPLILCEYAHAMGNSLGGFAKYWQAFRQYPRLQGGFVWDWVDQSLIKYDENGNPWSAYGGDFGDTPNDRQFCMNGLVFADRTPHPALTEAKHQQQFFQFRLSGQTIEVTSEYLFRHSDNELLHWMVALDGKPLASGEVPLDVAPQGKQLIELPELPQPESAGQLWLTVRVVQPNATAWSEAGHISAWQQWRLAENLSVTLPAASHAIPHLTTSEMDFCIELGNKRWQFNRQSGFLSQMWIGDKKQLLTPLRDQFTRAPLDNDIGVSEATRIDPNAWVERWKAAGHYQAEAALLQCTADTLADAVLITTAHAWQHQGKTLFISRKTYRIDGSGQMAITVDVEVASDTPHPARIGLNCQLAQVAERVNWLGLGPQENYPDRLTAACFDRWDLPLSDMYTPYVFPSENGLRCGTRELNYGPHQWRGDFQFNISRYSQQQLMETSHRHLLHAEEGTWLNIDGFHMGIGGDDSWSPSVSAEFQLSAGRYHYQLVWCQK
T2 sequence (P00722 2-1024): as above

`CCC(C)[C@@H]([C@@H](CC(=O)N1CCC[C@H]1[C@H](OC)[C@@H](C)C(=O)NC(Cc1ccccc1)C(=O)OC)OC)N(C)C(=O)[C@@H](NC(=O)[C@@H](NC)C(C)C)C(C)C` (stereo partly shown) [MMAF-OMe, reference compound] (H-[NMeV]V[Dil(5ξ)][Dolaproine][ξF]-OMe): the half-maximal inhibitory concentration (IC50) in the data set on KB cancer cell line (Homo sapiens, KB, 72 h) was 0.38 ± 0.17 nM.
As to `CCC(C)[C@@H]([C@@H](CC(=O)N1CCC[C@H]1[C@H](OC)[C@@H](C)C(=O)N[C@@H](Cc1ccccc1)C(=O)O)OC)N(C)C(=O)[C@@H](NC(=O)[C@H](C(C)C)N(C)C(=O)OCc1ccc(O[C@@H]2O[C@H](CO)[C@H](O)[C@H](O)[C@H]2O)c(C(=O)NCCOCCOCCOCc2cn(CCC(=O)N[C@@H](CCCCN)C(=O)NCCOCCOCCNC(=O)CC[C@H](NC(=O)c3ccc(NCc4cnc5nc(N)[nH]c(=O)c5n4)cc3)C(=O)O)nn2)c1)C(C)C` (stereo partly shown) [ligand-drug conjugate (1)], the IC50 at folate receptor is 17.5 nM; in the data set on KB cancer cell line (KB cell, 72 hours, MTT) it was 0.44 ± 0.12 nM. On folate receptor (relative to ligand-drug conjugate (B)), the “binding affinity (IC50) better than (B)” value is 2.5 fold. In addition, the half-life at 50 µM on beta-galactosidase turned out to be 34.7 min. The “more rapid hydrolysis rate relative to comparison compound (B)” value in data set [1] is listed as at least 6 times. For the same compound, in the data set on KB cancer cell line (KB cell, relative to conjugate (B)), the “cytotoxicity better than conjugate (B)” value was “about twofold”.

The IC50 is the concentration that gives 50% inhibition. As usually defined, the half-life is how long it takes for the measured level to halve.
